From patent US12428406B2 (PMV Pharmaceuticals, Inc., priority 2019, dated 2025)

The compounds below were run against T1, p53 Y220C (Homo sapiens, UniProt P04637, Y220C) (assay: In vitro DNA binding activity assay (HTRF / TR-FRET): stabilization of p53 Y220C and increase of its DNA binding activity). Conditions: recombinant His-tagged p53 Y220C DNA binding domain (aa 94-312), biotin-labeled consensus DNA, incubated at 27° C. or 29° C. for 60 min.
T1 construct: The recombinant protein was a truncation mutant containing only amino acids 94-312 of p53; made in house; host or cells: E. coli
T1 sequence (P04637 94-312, change not shown): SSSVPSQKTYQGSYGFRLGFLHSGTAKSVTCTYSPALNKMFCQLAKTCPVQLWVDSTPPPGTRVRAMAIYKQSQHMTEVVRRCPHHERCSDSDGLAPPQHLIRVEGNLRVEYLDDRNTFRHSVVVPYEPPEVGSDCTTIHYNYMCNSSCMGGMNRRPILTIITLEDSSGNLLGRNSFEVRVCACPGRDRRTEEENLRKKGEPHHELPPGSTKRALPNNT
Type: biochemical
Method in brief: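 Compounds from 4.5 mM DMSO stocks, 3-fold serial dilutions; room-temperature incubations of 15 and 20 min. SC150 = concentration raising DNA binding by 50% over no-compound control.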
CCC(=O)N1CCC(Nc2cccc3c2cc(C#CCNc2ccc(S(C)(=O)=O)cc2OC)n3CC(F)(F)F)CC1 [Compound 756A] was tested, and the “SC150 (concentration of the compound required to increase the DNA binding activity by 50%)” value was “+ (+ = 0 μM ≤ SC150 < 0.05 μM)”.
In the case of CCC(=O)N1CCC(Nc2cccc3c2cc(C#CCNc2ccc(S(N)(=O)=O)cc2OC)n3CC(F)(F)F)CC1 [Compound 757A], the “SC150 (concentration of the compound required to increase the DNA binding activity by 50%)” value is reported as “+ (+ = 0 μM ≤ SC150 < 0.05 μM)”.
COc1cc(S(=O)(=O)N2CCOCC2)ccc1NCC#Cc1cc2c(NC3CCN(C(C)=O)CC3)cccc2n1CC(F)(F)F [Compound 758A, 1-(4-{1[2-(3-{1[2-methoxy-4-(morpholine-4-sulfonyl)phenyl]amino}prop-1-yn-1-yl)-1-(2,2,2-trifluoroethyl)-1H-indol-4-yl]amino}piperidin-1-yl)ethan-1-one] was tested, and the “SC150 (concentration of the compound required to increase the DNA binding activity by 50%)” value was “+ (+ = 0 μM ≤ SC150 < 0.05 μM)”.
In the case of COc1cc(S(N)(=O)=O)ccc1NCC#Cc1cc2c(NC3CCN(C[C@H]4COC(=O)O4)CC3)cccc2n1CC(F)(F)F [Compound 759A, 3-methoxy-4-[(3-{4-[(1-{[(4S)-2-oxo-1,3-dioxolan-4-yl]methyl}piperidin-4-yl)amino]-1-(2,2,2-trifluoroethyl)-1H-indol-2-yl}prop-2-yn-1-yl)amino]benzene-1-sulfonamide], the “SC150 (concentration of the compound required to increase the DNA binding activity by 50%)” value is reported as “+ (+ = 0 μM ≤ SC150 < 0.05 μM)”.
For COc1cc(S(=O)(=O)NC(C)=O)ccc1NCC#Cc1cc2c(NC3CCN(CC4COC(=O)O4)CC3)cccc2n1CC(F)(F)F (stereo not drawn) [Compound 761A, N-[3-methoxy-4-({3-[4-({1-[(2-oxo-1,3-dioxolan-4-yl)methyl]piperidin-4-yl}amino)-1-(2,2,2-trifluoroethyl)-1H-indol-2-yl]prop-2-yn-1-yl}amino)benzenesulfonyl]acetamide], the “SC150 (concentration of the compound required to increase the DNA binding activity by 50%)” value was “+ (+ = 0 μM ≤ SC150 < 0.05 μM)”.
For CNC(=O)c1ccc(NCC#Cc2cc3c(NC4CCN(CC5COC(=O)O5)CC4)cccc3n2CC(F)(F)F)c(OC)c1 (stereo not drawn) [Compound 762A, 3-methoxy-N-methyl-4-({3-[4-({1-[(2-oxo-1,3-dioxolan-4-yl)methyl]piperidin-4-yl}amino)-1-(2,2,2-trifluoroethyl)-1H-indol-2-yl]prop-2-yn-1-yl}amino)benzamide], the “SC150 (concentration of the compound required to increase the DNA binding activity by 50%)” value was “+ (+ = 0 μM ≤ SC150 < 0.05 μM)”.
In the case of COc1cc(S(C)(=O)=O)ccc1NCC#Cc1cc2c(N[C@@H]3CCN4CCC[C@H]4C3)cccc2n1CC(F)(F)F [Compound 764A, N-[(7R,8aS)-octahydroindolizin-7-yl]-2-{3-[(4-methanesulfonyl-2-methoxyphfenyl)amino]prop-1-yn-1-yl}-1-(2,2,2-trifluoroethyl)-1H-indol-4-amine], the “SC150 (concentration of the compound required to increase the DNA binding activity by 50%)” value is reported as “+ (+ = 0 μM ≤ SC150 < 0.05 μM)”.
For COc1cc(S(C)(=O)=O)ccc1NCC#Cc1cc2c(N[C@@H]3CCN4CCC[C@@H]4C3)cccc2n1CC(F)(F)F [Compound 765A, N-[(7R,8aR)-octahydroindolizin-7-yl]-2-{3-[(4-methanesulfonyl-2-methoxyphenyl)amino]prop-1-yn-1-yl}-1-(2,2,2-trifluoroethyl)-1H-indol-4-amine], the “SC150 (concentration of the compound required to increase the DNA binding activity by 50%)” value was “+ (+ = 0 μM ≤ SC150 < 0.05 μM)”.
In the case of COc1cc(S(C)(=O)=O)ccc1NCC#Cc1cc2c(N[C@H]3CCN(C)C[C@@H]3F)cccc2n1CC(F)(F)F [Compound 771A], the “SC150 (concentration of the compound required to increase the DNA binding activity by 50%)” value is reported as “+ (+ = 0 μM ≤ SC150 < 0.05 μM)”.
In the case of COc1cc(S(C)(=O)=O)ccc1NCC#Cc1cc2c(N[C@@H]3CCN(C)C[C@@H]3F)cccc2n1CC(F)(F)F [Compound 772A, N-[(3S,4R)-3-fluoro-1-methylpiperidin-4-yl]-2-{3-[(4-methanesulfonyl-2-methoxyphenyl)amino]prop-1-yn-1-yl}-1-(2,2,2-trifluoroethyl)-1H-indol-4-amine], the “SC150 (concentration of the compound required to increase the DNA binding activity by 50%)” value is reported as “+ (+ = 0 μM ≤ SC150 < 0.05 μM)”.
In the case of COc1cc(C(=O)O)ccc1NCC#Cc1cc2c(N[C@H]3CCN(C)C[C@H]3F)cccc2n1CC(F)(F)F [Compound 780A, 4-{[3-(4-{[(3R,4S)-3-fluoro-1-methylpiperidin-4-yl]amino}-1-(2,2,2-trifluoroethyl)-1H-indol-2-yl)prop-2-yn-1-yl]amino}-3-methoxybenzoic acid], the “SC150 (concentration of the compound required to increase the DNA binding activity by 50%)” value is reported as “+ (+ = 0 μM ≤ SC150 < 0.05 μM)”.
With COc1cc(C(=O)O)ccc1NCC#Cc1cc2c(N[C@@H]3CCN(C)C[C@@H]3F)cccc2n1CC(F)(F)F [Compound 781A, 4-{[3-(4-{[(3S,4R)-3-fluoro-1-methylpiperidin-4-yl]amino}-1-(2,2,2-trifluoroethyl)-1H-indol-2-yl)prop-2-yn-1-yl]amino}-3-methoxybenzoic acid] the “SC150 (concentration of the compound required to increase the DNA binding activity by 50%)” value was “+ (+ = 0 μM ≤ SC150 < 0.05 μM)”.
COc1cc(C(=O)O)ccc1NCC#Cc1cc2c(N[C@@H]3CCN(C)C[C@H]3F)cccc2n1CC(F)(F)F [Compound 788A, 4-{[3-(4-{[(3R,4R)-3-fluoro-1-methylpiperidin-4-yl]amino}-1-(2,2,2-trifluoroethyl)-1H-indol-2-yl)prop-2-yn-1-yl]amino}-3-methoxybenzoic acid] was tested, and the “SC150 (concentration of the compound required to increase the DNA binding activity by 50%)” value was “+ (+ = 0 μM ≤ SC150 < 0.05 μM)”.
For COc1cc(C(=O)O)ccc1NCC#Cc1cc2c(N[C@H]3CCN(C)C[C@@H]3F)cccc2n1CC(F)(F)F [Compound 789A, 4-{[3-(4-{[(3S,4S)-3-fluoro-1-methylpiperidin-4-yl]amino}-1-(2,2,2-trifluoroethyl)-1H-indol-2-yl)prop-2-yn-1-yl]amino}-3-methoxybenzoic acid], the “SC150 (concentration of the compound required to increase the DNA binding activity by 50%)” value was “++ (++ = 0.05 μM ≤ SC150 < 0.1 μM)”.
For COc1cc(S(N)(=O)=O)ccc1NCC#Cc1cc2c(N[C@H]3CCN(C)C[C@H]3F)cccc2n1CC(F)(F)F [Compound 790A, 4-{[3-(4-{[(3R,4S)-3-fluoro-1-methylpiperidin-4-yl]amino}-1-(2,2,2-trifluoroethyl)-1H-indol-2-yl)prop-2-yn-1-yl]amino}-3-methoxybenzene-1-sulfonamide], the “SC150 (concentration of the compound required to increase the DNA binding activity by 50%)” value was “+ (+ = 0 μM ≤ SC150 < 0.05 μM)”.
COc1cc(S(N)(=O)=O)ccc1NCC#Cc1cc2c(N[C@@H]3CCN(C)C[C@@H]3F)cccc2n1CC(F)(F)F [Compound 791A, 4-{[3-(4-{[(3S,4R)-3-fluoro-1-methylpiperidin-4-yl]amino}-1-(2,2,2-trifluoroethyl)-1H-indol-2-yl)prop-2-yn-1-yl]amino}-3-methoxybenzene-1-sulfonamide] was tested, and the “SC150 (concentration of the compound required to increase the DNA binding activity by 50%)” value was “+ (+ = 0 μM ≤ SC150 < 0.05 μM)”.
COc1cc(C(N)=O)ccc1NCC#Cc1cc2c(N[C@@H]3CCN(C)C[C@@H]3F)cccc2n1CC(F)(F)F [Compound 800A, 4-{[3-(4-{[(3S,4R)-3-fluoro-1-methylpiperidin-4-yl]amino}-1-(2,2,2-trifluoroethyl)-1H-indol-2-yl)prop-2-yn-1-yl]amino}-3-methoxybenzamide] was tested, and the “SC150 (concentration of the compound required to increase the DNA binding activity by 50%)” value was “+ (+ = 0 μM ≤ SC150 < 0.05 μM)”.
COc1cc(C(N)=O)ccc1NCC#Cc1cc2c(N[C@H]3CCN(C)C[C@H]3F)cccc2n1CC(F)(F)F [Compound 801A, 4-{[3-(4-{[(3R,4S)-3-fluoro-1-methylpiperidin-4-yl]amino}-1-(2,2,2-trifluoroethyl)-1H-indol-2-yl)prop-2-yn-1-yl]amino}-3-methoxybenzamide] was tested, and the “SC150 (concentration of the compound required to increase the DNA binding activity by 50%)” value was “+ (+ = 0 μM ≤ SC150 < 0.05 μM)”.
In the case of COc1cc(S(C)(=O)=O)ccc1NCC#Cc1cc2c(N[C@@H]3CCN(C(C)C)C[C@@H]3F)cccc2n1CC(F)(F)F [Compound 802A], the “SC150 (concentration of the compound required to increase the DNA binding activity by 50%)” value is reported as “+ (+ = 0 μM ≤ SC150 < 0.05 μM)”.
For COc1cc(S(C)(=O)=O)ccc1NCC#Cc1cc2c(N[C@H]3CCN(C(C)C)C[C@H]3F)cccc2n1CC(F)(F)F [Compound 803A], the “SC150 (concentration of the compound required to increase the DNA binding activity by 50%)” value was “+ (+ = 0 μM ≤ SC150 < 0.05 μM)”.
In the case of CNC(=O)c1ccc(NCC#Cc2cc3c(N[C@@H]4CCN(C)C[C@@H]4F)cccc3n2CC(F)(F)F)c(OC)c1 [Compound 804A, 4-{[3-(4-{[(3S,4R)-3-fluoro-1-methylpiperidin-4-yl]amino}-1-(2,2,2-trifluoroethyl)-1H-indol-2-yl)prop-2-yn-1-yl]amino}-3-methoxy-N-methylbenzamide], the “SC150 (concentration of the compound required to increase the DNA binding activity by 50%)” value is reported as “+ (+ = 0 μM ≤ SC150 < 0.05 μM)”.
For CNC(=O)c1ccc(NCC#Cc2cc3c(N[C@H]4CCN(C)C[C@H]4F)cccc3n2CC(F)(F)F)c(OC)c1 [Compound 805A, 4-{[3-(4-{[(3R,4S)-3-fluoro-1-methylpiperidin-4-yl]amino}-1-(2,2,2-trifluoroethyl)-1H-indol-2-yl)prop-2-yn-1-yl]amino}-3-methoxy-N-methylbenzamide], the “SC150 (concentration of the compound required to increase the DNA binding activity by 50%)” value was “+ (+ = 0 μM ≤ SC150 < 0.05 μM)”.
For COc1cc(C(=O)NC(C)C)ccc1NCC#Cc1cc2c(N[C@@H]3CCN(C)C[C@@H]3F)cccc2n1CC(F)(F)F [Compound 808A, 4-{[3-(4-{[(3S,4R)-3-fluoro-1-methylpiperidin-4-yl]amino}-1-(2,2,2-trifluoroethyl)-1H-indol-2-yl)prop-2-yn-1-yl]amino}-3-methoxy-N-(propan-2-yl)benzamide], the “SC150 (concentration of the compound required to increase the DNA binding activity by 50%)” value was “+ (+ = 0 μM ≤ SC150 < 0.05 μM)”.
In the case of COc1cc(C(=O)O)ccc1NCC#Cc1cc2c(N[C@@H]3CCN(C(C)C)C[C@@H]3F)cccc2n1CC(F)(F)F [Compound 809A, 4-{[3-(4-{[(3S,4R)-3-fluoro-1-(propan-2-yl)piperidin-4-yl]amino}-1-(2,2,2-trifluoroethyl)-1H-indol-2-yl)prop-2-yn-1-yl]amino}-3-methoxybenzoic acid], the “SC150 (concentration of the compound required to increase the DNA binding activity by 50%)” value is reported as “+ (+ = 0 μM ≤ SC150 < 0.05 μM)”.
